Tests used:
Mus musculus [1] = species: Mus musculus; assay: Tumor promoting activity of DMBA-initiated tumor in back skin of NMRI mouse assessed as average tumor yeild at 20 nmol twice weekly measured after 12 weeks; assay type: organism-based, Zone of skin; conditions: in vivo, 2016 h
Mus musculus [2] = species: Mus musculus; assay: Tumor promoting activity of DMBA-initiated tumor in back skin of NMRI mouse assessed as average tumor yeild at 20 nmol twice weekly measured after 24 weeks; assay type: organism-based, Zone of skin; conditions: in vivo, 4032 h
Mus musculus [3] = species: Mus musculus; assay: Tumor promoting activity of DMBA-initiated tumor in back skin of NMRI mouse assessed as tumor rate at 20 nmol twice weekly measured after 12 weeks; assay type: organism-based, Zone of skin; conditions: in vivo, 2016 h
Mus musculus [4] = species: Mus musculus; assay: Tumor promoting activity of DMBA-initiated tumor in back skin of NMRI mouse assessed as tumor rate at 20 nmol twice weekly measured after 24 weeks; assay type: organism-based, Zone of skin; conditions: in vivo, 4032 h
Mus musculus [5] = species: Mus musculus; assay: Skin irritant activity in NMRI mouse ear assessed as irritant dose 50 per ear after 24 hrs; assay type: ADME, organism-based; conditions: in vivo
[6] = Tumor promoting activity of DMBA-initiated tumor in back skin of NMRI mouse assessed as survival rate at 20 nmol twice weekly measured after 24 weeks; assay type: organism-based, Zone of skin; conditions: in vivo, topical or ocular
Mus musculus [7] = species: Mus musculus; assay: Skin irritant activity in NMRI mouse ear assessed as irritancy after 24 hrs; assay type: ADME, organism-based; conditions: in vivo
[8] = Tumor promoting activity of DMBA-initiated tumor in back skin of NMRI mouse assessed as survival rate at 2.5 nmol twice weekly measured after 24 weeks; assay type: organism-based, Zone of skin; conditions: in vivo, topical or ocular
Mus musculus [9] = species: Mus musculus; assay: Tumor promoting activity of DMBA-initiated tumor in back skin of NMRI mouse assessed as tumor rate at 5 nmol twice weekly measured after 24 weeks; assay type: organism-based, Zone of skin; conditions: in vivo, 4032 h
Mus musculus [10] = species: Mus musculus; assay: Tumor promoting activity of DMBA-initiated tumor in back skin of NMRI mouse assessed as average tumor yeild at 5 nmol twice weekly measured after 24 weeks; assay type: organism-based, Zone of skin; conditions: in vivo, 4032 h
Mus musculus [11] = species: Mus musculus; assay: Tumor promoting activity of DMBA-initiated tumor in back skin of NMRI mouse assessed as tumor rate at 5 nmol twice weekly measured after 12 weeks; assay type: organism-based, Zone of skin; conditions: in vivo, 2016 h
Mus musculus [12] = species: Mus musculus; assay: Tumor promoting activity of DMBA-initiated tumor in back skin of NMRI mouse assessed as average tumor yeild at 2.5 nmol twice weekly measured after 12 weeks; assay type: ADME, organism-based, Zone of skin; conditions: in vivo, 2016 h
Mus musculus [13] = species: Mus musculus; assay: Tumor promoting activity of DMBA-initiated tumor in back skin of NMRI mouse assessed as tumor rate at 2.5 nmol twice weekly measured after 24 weeks; assay type: organism-based, Zone of skin; conditions: in vivo, 4032 h
Mus musculus [14] = species: Mus musculus; assay: Tumor promoting activity of DMBA-initiated tumor in back skin of NMRI mouse assessed as average tumor yeild at 5 nmol twice weekly measured after 12 weeks; assay type: organism-based, Zone of skin; conditions: in vivo, 2016 h
Mus musculus [15] = species: Mus musculus; assay: Tumor promoting activity of DMBA-initiated tumor in back skin of NMRI mouse assessed as average tumor yeild at 2.5 nmol twice weekly measured after 24 weeks; assay type: ADME, organism-based, Zone of skin; conditions: in vivo, 4032 h
[16] = Tumor promoting activity of DMBA-initiated tumor in back skin of NMRI mouse assessed as survival rate at 5 nmol twice weekly measured after 24 weeks; assay type: organism-based, Zone of skin; conditions: in vivo, topical or ocular
Mus musculus [17] = species: Mus musculus; assay: Tumor promoting activity of DMBA-initiated tumor in back skin of NMRI mouse assessed as tumor rate at 2.5 nmol twice weekly measured after 12 weeks; assay type: organism-based, Zone of skin; conditions: in vivo, 2016 h
Mus musculus [18] = species: Mus musculus; assay: Tumor promoting activity of DMBA-initiated tumor in back skin of NMRI mouse assessed as tumor rate at 10 nmol twice weekly measured after 12 weeks; assay type: organism-based, Zone of skin; conditions: in vivo, 2016 h
Mus musculus [19] = species: Mus musculus; assay: Tumor promoting activity of DMBA-initiated tumor in back skin of NMRI mouse assessed as tumor rate at 10 nmol twice weekly measured after 24 weeks; assay type: organism-based, Zone of skin; conditions: in vivo, 4032 h
Mus musculus [20] = species: Mus musculus; assay: Tumor promoting activity of DMBA-initiated tumor in back skin of NMRI mouse assessed as average tumor yeild at 10 nmol twice weekly measured after 12 weeks; assay type: organism-based, Zone of skin; conditions: in vivo, 2016 h
Mus musculus [21] = species: Mus musculus; assay: Tumor promoting activity of DMBA-initiated tumor in back skin of NMRI mouse assessed as average tumor yeild at 10 nmol twice weekly measured after 24 weeks; assay type: organism-based, Zone of skin; conditions: in vivo, 4032 h
[22] = Tumor promoting activity of DMBA-initiated tumor in back skin of NMRI mouse assessed as survival rate at 10 nmol twice weekly measured after 24 weeks; assay type: organism-based, Zone of skin; conditions: in vivo, topical or ocular

C=C(C)[C@]12O[C@@]3(/C=C/C=C/C=C\CCC)O[C@@H]1[C@@H]1[C@@H]4O[C@]4(CO)[C@@H](O)[C@]4(O)C(=O)C(C)=C[C@H]4[C@@]1(O3)[C@H](C)[C@H]2OC(C)=O
Activity (Mus musculus [1]): 0
Activity (Mus musculus [2]): 0
Activity (Mus musculus [3]): 0%
Activity (Mus musculus [4]): 0%
Activity (Mus musculus [5]): 1.1 nmol
survival at 4032 h [6]: 100%
Activity (Mus musculus [7]): 0.91 nmol⁻¹

C=C(C)[C@]12C[C@@H](C)[C@@]34O[C@](/C=C\C=C\CCCCC)(O[C@@H]1[C@@H]3[C@@H]1O[C@]1(CO)[C@@H](O)[C@]1(O)C(=O)C(C)=C[C@H]14)O2
Activity (Mus musculus [5]): 0.15 nmol
Activity (Mus musculus [7]): 6.7 nmol⁻¹

C=C(C)[C@@]1(OC(=O)/C=C/CCCCCCCCCCCCC)C[C@@H](C)[C@@]2(O)[C@H]([C@H]1O)[C@@H]1O[C@]1(CO)[C@@H](O)[C@]1(O)C(=O)C(C)=C[C@H]12
Activity (Mus musculus [5]): 0.08 nmol
Activity (Mus musculus [7]): 13 nmol⁻¹

C=C(C)[C@]12O[C@@]3(/C=C/C=C/CCCCC)O[C@@H]1[C@@H]1[C@@H]4O[C@]4(CO)[C@@H](O)[C@]4(O)C(=O)C(C)=C[C@H]4[C@@]1(O3)[C@H](C)[C@H]2O
Activity (Mus musculus [5]): 0.92 nmol
Activity (Mus musculus [7]): 1.1 nmol⁻¹

C=C(C)[C@]12O[C@@]3(/C=C/C=C/CCCCCCCCC)O[C@@H]1[C@@H]1[C@@H]4O[C@]4(CO)[C@@H](O)[C@]4(O)C(=O)C(C)=C[C@H]4[C@@]1(O3)[C@H](C)[C@H]2OC(C)=O
Activity (Mus musculus [5]): 0.03 nmol
Activity (Mus musculus [7]): 33 nmol⁻¹

C=C(C)[C@]12O[C@@]3(/C=C/C=C/CCCCC)O[C@@H]1[C@@H]1[C@@H]4O[C@]4(CO)[C@@H](O)[C@]4(O)C(=O)C(C)=C[C@H]4[C@@]1(O3)[C@H](C)[C@H]2OC(C)=O
Activity (Mus musculus [1]): 0
Activity (Mus musculus [2]): 0.36
Activity (Mus musculus [3]): 0%
Activity (Mus musculus [4]): 14%
Activity (Mus musculus [5]): 0.27 nmol
survival at 4032 h [6]: 88%
Activity (Mus musculus [7]): 3.7 nmol⁻¹

C=C(C)[C@@]12C[C@@H](C)[C@@]34O[C@@]5(/C=C/CCCCCCCCCCCC(C)(O)[C@H]6[C@H](C)C(=O)[C@@](O)([C@H](O)[C@@]7(CO)O[C@H]7[C@H]3[C@H]1O5)[C@@H]64)O2 (stereo partly specified)
Activity (Mus musculus [5]): 0.016 nmol
Activity (Mus musculus [7]): 6 nmol⁻¹

C=C(C)[C@]12C[C@@H](C)[C@@]34O[C@](/C=C\C=C\CCCCCCCCCC)(O[C@@H]1[C@@H]3[C@@H]1O[C@]1(CO)[C@@H](O)[C@]1(O)C(=O)C(C)=C[C@H]14)O2
Activity (Mus musculus [5]): 0.02 nmol
Activity (Mus musculus [7]): 50 nmol⁻¹

C=C(C)[C@@]1(O)C[C@@H](C)[C@@]2(O)[C@H]([C@H]1OC(=O)/C=C/CCCCCCCCCCCCC)[C@@H]1O[C@]1(COC(=O)CCCCCCCCCCCCCCC)[C@@H](O)[C@]1(O)C(=O)C(C)=C[C@H]12
Activity (Mus musculus [5]): 20 nmol
Activity (Mus musculus [7]): 0.15 nmol⁻¹

C=C(C)[C@]12C[C@@H](C)[C@@]34O[C@](/C=C/CCCCCCCCCCCCC)(O[C@@H]1[C@@H]3[C@@H]1O[C@]1(COC(=O)CCCCCCCCCCCCCCC)[C@@H](O)[C@]1(O)C(=O)C(C)=C[C@H]14)O2
Activity (Mus musculus [5]): 0.16 nmol
Activity (Mus musculus [7]): 6.3 nmol⁻¹

C=C(C)[C@]12O[C@@]34/C=C/CCCCCCCCCCCC(C)[C@H]5[C@H](C)C(=O)[C@@]6(O)[C@H](O)[C@@]7(CO)O[C@H]7[C@@H]([C@H]1O3)[C@](O4)([C@H](C)[C@H]2O)[C@H]56 (stereo partly specified)
survival at 4032 h [8]: 100%
Activity (Mus musculus [9]): 86%
Activity (Mus musculus [10]): 2.7
Activity (Mus musculus [11]): 60%
Activity (Mus musculus [12]): 0.33
Activity (Mus musculus [13]): 87%
Activity (Mus musculus [5]): 0.0015 nmol
Activity (Mus musculus [14]): 1.3
Activity (Mus musculus [15]): 2.9
survival at 4032 h [16]: 94%
Activity (Mus musculus [7]): 667 nmol⁻¹
Activity (Mus musculus [17]): 6.7%

C=C(C)[C@]12C[C@@H](C)[C@@]34O[C@](CCCCCCCCC)(O[C@@H]1[C@@H]3[C@@H]1O[C@]1(CO)[C@@H](O)[C@]1(O)C(=O)C(C)=C[C@H]14)O2 [SIMPLEXIN]
Activity (Mus musculus [1]): 0.6
Activity (Mus musculus [18]): 4%
Activity (Mus musculus [2]): 3
Activity (Mus musculus [19]): 54%
Activity (Mus musculus [20]): 0.2
Activity (Mus musculus [21]): 1.7
Activity (Mus musculus [3]): 20%
Activity (Mus musculus [4]): 71%
Activity (Mus musculus [5]): 0.013 nmol
survival at 4032 h [22]: 93%
survival at 4032 h [6]: 100%
Activity (Mus musculus [7]): 77 nmol⁻¹

C=C(C)[C@]12C[C@@H](C)[C@@]34O[C@](/C=C/CCCCCCCCCCCCC)(O[C@@H]1[C@@H]3[C@@H]1O[C@]1(CO)[C@@H](O)[C@]1(O)C(=O)C(C)=C[C@H]14)O2
Activity (Mus musculus [9]): 69%
Activity (Mus musculus [18]): 94%
Activity (Mus musculus [10]): 2.9
Activity (Mus musculus [19]): 100%
Activity (Mus musculus [20]): 4.7
Activity (Mus musculus [11]): 6%
Activity (Mus musculus [21]): 9.7
Activity (Mus musculus [5]): 0.02 nmol
Activity (Mus musculus [14]): 0.13
survival at 4032 h [22]: 94%
survival at 4032 h [16]: 100%
Activity (Mus musculus [7]): 50 nmol⁻¹

C=C(C)[C@]12O[C@@]3(/C=C/C=C/C=C\CCC)O[C@@H]1[C@@H]1[C@@H]4O[C@]4(CO)[C@@H](O)[C@]4(O)C(=O)C(C)=C[C@H]4[C@@]1(O3)[C@H](C)[C@H]2O
Activity (Mus musculus [5]): 0.81 nmol
Activity (Mus musculus [7]): 1.2 nmol⁻¹

C=C(C)[C@@]1(O)C[C@@H](C)[C@@]2(O)[C@H]([C@H]1OC(=O)/C=C/CCCCCCCCCCCCC)[C@@H]1O[C@]1(CO)[C@@H](O)[C@]1(O)C(=O)C(C)=C[C@H]12
Activity (Mus musculus [5]): 0.035 nmol
Activity (Mus musculus [7]): 29 nmol⁻¹

C=C(C)[C@]12C[C@@H](C)[C@@]34O[C@](CCCCCCCCCCCCCCC)(O[C@@H]1[C@@H]3[C@@H]1O[C@]1(CO)[C@@H](O)[C@]1(O)C(=O)C(C)=C[C@H]14)O2
Activity (Mus musculus [5]): 0.04 nmol
Activity (Mus musculus [7]): 25 nmol⁻¹

C=C(C)[C@@]12C[C@@H](C)[C@@]34O[C@@]5(/C=C/CCCCCCCCCCCC(C)[C@H]6[C@H](C)C(=O)[C@@](O)([C@H](O)[C@@]7(COC(=O)CCCCCCCCCCCCCCC)O[C@H]7[C@H]3[C@H]1O5)[C@@H]64)O2 (stereo partly specified)
Activity (Mus musculus [5]): 0.019 nmol
Activity (Mus musculus [7]): 53 nmol⁻¹

C=C(C)[C@]12O[C@@]34/C=C/CCCCCCCCCCC[C@H](C)[C@H]5[C@H](C)C(=O)[C@@]6(O)[C@H](O)[C@@]7(CO)O[C@H]7[C@@H]([C@H]1O3)[C@](O4)([C@H](C)[C@H]2OC(C)=O)[C@H]56
survival at 4032 h [8]: 94%
Activity (Mus musculus [9]): 100%
Activity (Mus musculus [10]): 4.4
Activity (Mus musculus [11]): 33%
Activity (Mus musculus [12]): 0
Activity (Mus musculus [13]): 27%
Activity (Mus musculus [5]): 0.01 nmol
Activity (Mus musculus [14]): 0.33
Activity (Mus musculus [15]): 0.6
survival at 4032 h [16]: 99%
Activity (Mus musculus [7]): 100 nmol⁻¹
Activity (Mus musculus [17]): 0%
